Laboratory results from patent US9365533B2, “Coumarin derivative” (NIPPON ZOKI PHARMACEUTICAL CO., LTD., priority 2012, dated 2016).
Structures can show the parent of a compound that is named as a salt.

How the values were obtained:
[1] = tested on: HFLS-OA cells; experiment: Suppressive action to TNF-α-induced proliferation of synovial cells (HFLS-OA), BrdU ELISA; assay type: cell-based; details: 200 μmol/L test substance, human recombinant TNF-α 10 ng/mL, 5 days, BrdU incorporation increase by TNF-α = 100%; for activity at 200 µM: Synovial cell, 120 h, read-out: Synovial Cell Proliferation Rate (%)
Method: Evaluation of Suppressive Action to Cell Proliferation of Synovial Cells (HFLS-OA) Derived from Tissues of Human Osteoarthritis
(1) Incubation of HFLS-OA Cells
HFLS-OA cells were sown onto a 96-well plate so as to make them 10^4 cells/well/100 μL in a D-MEM containing 2 vol % of fetal bovine serum (FBS) and incubated for 24 hours. A test substance (200 μmol/L) and human recombinant TNF-α (10 ng/mL) were added thereto followed by incubating for 5 days.
(2) Measurement of Action to HFLS-OA Cell Proliferation
A kit [Cell Proliferation ELISA, BrdU (colorimetric) (Roche Diagnostics)] was used and measurement was conducted according to the protocol attached to the kit. HFLS-OA cells were incubated for 3 days and 10 μL of 5-bromo-2′-deoxyuridine (BrdU) dissolved in a phosphate buffered saline (PBS) (100 μmol/L, pH 7.4) was added to each well followed by incubating for 48 hours more. After the culture supernatant was removed from each well, 200 μL/well of an immobilization/denaturation solution was added thereto and the mixture was allowed to stand for 30 minutes whereby immobilization of the cells and denaturation of DNA were conducted. After the immobilization/denaturation solution was completely removed, 100 μL of a peroxidase-labeled anti-BrdU antibody solution was added thereto and the mixture was made to react at room temperature for 90 minutes. After washing with PBS, 100 μL of a substrate liquid (tetramethylbenzidine) was added to each well and the absorbance was measured. A cell proliferation rate upon addition of each test substance was calculated where an increase in incorporation of BrdU upon addition of TNF-α was defined as 100% of cell proliferation rate.

[2] = tested on: cartilage pieces of bovine metacarpophalangeal joint; experiment: Suppressive action to cartilage destruction: release of sGAG induced by IL-1α from cartilage pieces; assay type: cell-based; details: 25 μmol/L test substance, 2 h pretreatment, human recombinant IL-1α 3 ng/mL, 4 days at 37° C.; for inhibition at 25 µM: Bos taurus, 96 h, read-out: sGAG Releasing Suppressive Rate (%)
Method: Evaluation of Suppressive Action to Cartilage Destruction [Release of sGAG Induced by Interleukin-1α (IL-1α)]
(1) Incubation of Cartilage Pieces
Each four cartilage pieces of bovine metacarpophalangeal joint were placed in each well of a 48-well plate and pretreated for 2 hours with a basal medium [D-MEM (Dulbecco's Modified Eagle Medium) containing 2 mmol/L of glutamine, 25 mmol/L of Hepes, 100 μg/mL of streptomycin, 100 IU/mL of penicillin and 5.6 μg/mL of amphotericin B] containing 25 μmol/L of a test substance. Human recombinant IL-1α (3 ng/mL) was added thereto followed by incubating at 37° C. for 4 days in a CO2 incubator set at 5 vol % of CO2. Culture supernatant and cartilage pieces were recovered and stored by freezing until the measurement for each of them.
(2) Measurement of the Amount of sGAG and Calculation of the Suppressive Rate for the Release of sGAG
The recovered cartilage pieces were treated with a papain solution [containing 1 mg/mL of papain, 100 mmol/L of sodium phosphate (pH 6.5), 5 mmol/L of L-cysteine and 5 mmol/L of disodium ethylenediaminetetraacetate (EDTA)] at 65° C. for about 16 hours to solubilize. Amount of sGAG in the resulting extract was measured using an sGAG Alcian Blue Binding Kit (Wieslab AB) which is a quantitative kit to which a Alcian blue staining protocol is applied. sGAG in the culture supernatant after the incubation was measured without subjecting to a papain treatment. Each releasing rate of sGAG was determined by the following formula to calculate the suppressive rate for the release of sGAG. Releasing rate (%) of sGAG={(Total sGAG amount in the culture supernatant)/[(Total sGAG amount in the culture supernatant)+(Total sGAG amount in the cartilage pieces)]}×100 Suppressive rate (%) for release of sGAG={[Releasing rate of sGAG (IL-1α stimulation)−Releasing rate of sGAG (Test substance)]/[Releasing rate of sGAG (IL-1α stimulation)−Releasing rate of sGAG (Non-stimulation)]}×100

| Structure (SMILES) | activity at 200 µM [1] | inhibition at 25 µM [2] | Synovial Cell Proliferation Rate (%) [1] | sGAG Releasing Suppressive Rate (%) [2] |
| --- | --- | --- | --- | --- |
| COc1ccc(S(=O)(=O)Nc2cc3cccc(OS(=O)(=O)c4ccc(OC)cc4)c3oc2=O)cc1 [Compound 1, 3-[(4-Methoxyphenyl)sulfonylamino]-2-oxochromen-8-yl 4-methoxybenzenesulfonate] | -39.1% | 93% | – | – |
| O=c1oc2c(OS(=O)(=O)c3cccc([N+](=O)[O-])c3)cccc2cc1NS(=O)(=O)c1cccc(Br)c1 [Compound 54, 3-[(3-Bromophenyl)sulfonylamino]-2-oxochromen-8-yl 3-nitrobenzenesulfonate] | -44.4% | 136% | – | – |
| O=c1oc2c(OS(=O)(=O)c3ccc(C(F)(F)F)cc3)cccc2cc1NS(=O)(=O)c1cccc(C(F)(F)F)c1 [Compound 57, 2-Oxo-3-[[3-(trifluoromethyl)phenyl]sulfonylamino]-chromen-8-yl 4-(trifluoromethyl)benzenesulfonate] | -50% | 140% | – | – |
| O=C(O)c1ccc(S(=O)(=O)Oc2cccc3cc(NS(=O)(=O)c4cccc([N+](=O)[O-])c4)c(=O)oc23)cc1 [Compound 49, 4-[3-[(3-Nitrophenyl)sulfonylamino]-2-oxochromen-8-yl]oxysulfonylbenzoic acid] | -36.1% | 38% | – | – |
| O=c1oc2c(OS(=O)(=O)c3cccc(Br)c3)cccc2cc1NS(=O)(=O)c1cccc(C(F)(F)F)c1 [Compound 60, 2-Oxo-3-[[3-(trifluoromethyl)phenyl]sulfonylamino]-chromen-8-yl 3-bromobenzenesulfonate] | -44.4% | 138% | – | – |
| O=c1oc2c(OS(=O)(=O)c3cccc(Br)c3)cccc2cc1NS(=O)(=O)c1cccc([N+](=O)[O-])c1 [Compound 59, 3-[(3-Nitrophenyl)sulfonylamino]-2-oxochromen-8-yl 3-bromobenzenesulfonate] | -32.8% | 123% | – | – |
| O=c1oc2c(OS(=O)(=O)c3cccc(C(F)(F)F)c3)cccc2cc1NS(=O)(=O)c1ccc(C(F)(F)F)cc1 [Compound 68, 2-Oxo-3-[[4-(trifluoromethyl)phenyl]sulfonylamino]-chromen-8-yl 3-(trifluoromethyl)benzenesulfonate] | -42.8% | 124% | – | – |
| O=c1oc2c(OS(=O)(=O)c3cccc(Br)c3)cccc2cc1NS(=O)(=O)c1ccccc1 [Compound 34, 3-(Benzenesulfonamide)-2-oxochromen-8-yl 3-bromobenzenesulfonate] | – | – | −31.6% | 109% |
| O=c1oc2c(OS(=O)(=O)c3ccc([N+](=O)[O-])cc3)cccc2cc1NS(=O)(=O)c1ccc([N+](=O)[O-])cc1 [Compound 16, 3-[(4-Nitrophenyl)sulfonylamino]-2-oxochromen-8-yl 4-nitrobenzenesulfonate] | -19.9% | 112% | – | – |
| O=c1oc2c(OS(=O)(=O)c3ccccc3)cccc2cc1NS(=O)(=O)c1ccc(F)c(F)c1 [Compound 26, 3-[(3,4-Difluorophenyl)sulfonylamino]-2-oxochromen-8-yl benzenesulfonate] | -38.4% | 97% | – | – |
| O=c1oc2c(OS(=O)(=O)c3ccc(-c4ccccc4)cc3)cccc2cc1NS(=O)(=O)c1cccc(Br)c1 [Compound 65, 3-[(3-Bromophenyl)sulfonylamino]-2-oxochromen-8-yl 4-phenylbenzenesulfonate] | -45.9% | 115% | – | – |
| O=c1oc2c(OS(=O)(=O)c3ccc(-c4ccccc4)cc3)cccc2cc1NS(=O)(=O)c1ccc(C(F)(F)F)cc1 [Compound 64, 2-Oxo-3-[[4-(trifluoromethyl)phenyl]sulfonylamino]-chromen-8-yl 4-phenylbenzenesulfonate] | -45.9% | 136% | – | – |
| N#Cc1cccc(S(=O)(=O)Nc2cc3cccc(OS(=O)(=O)c4ccccc4)c3oc2=O)c1 [Compound 22, 3-[(3-Cyanophenyl)sulfonylamino]-2-oxochromen-8-yl benzenesulfonate] | -38.4% | 92% | – | – |
| O=c1oc2c(OS(=O)(=O)c3cccc([N+](=O)[O-])c3)cccc2cc1NS(=O)(=O)c1ccc(-c2ccccc2)cc1 [Compound 55, 2-Oxo-3-[(4-phenylphenyl)sulfonylamino]chromen-8-yl 3-nitrobenzenesulfonate] | -32.2% | 117% | – | – |
| O=c1oc2c(OS(=O)(=O)c3ccccc3)cccc2cc1NS(=O)(=O)c1ccc([N+](=O)[O-])cc1 [Compound 23, 3-[(4-Nitrophenyl)sulfonylamino]-2-oxochromen-8-yl benzenesulfonate] | -39% | 103% | – | – |
| O=c1oc2c(OS(=O)(=O)c3cccnc3)cccc2cc1NS(=O)(=O)c1cccc(Br)c1 [Compound 36] | – | – | −33.9% | 30% |
| O=c1oc2c(OS(=O)(=O)c3ccccc3)cccc2cc1NS(=O)(=O)c1cccc(F)c1 [Compound 25, 3-[(3-Fluorophenyl)sulfonylamino]-2-oxochromen-8-yl benzenesulfonate] | -40.9% | 77% | – | – |
| O=c1oc2c(OS(=O)(=O)c3ccc(-c4ccccc4)cc3)cccc2cc1NS(=O)(=O)c1ccc(-c2ccccc2)cc1 [Compound 66, 2-Oxo-3-[(4-phenylphenyl]sulfonylamino]chromen-8-yl 4-phenylbenzenesulfonate] | -37.9% | 38% | – | – |
| Nc1ccc(S(=O)(=O)Oc2cccc3cc(NS(=O)(=O)c4cccc(C(F)(F)F)c4)c(=O)oc23)cc1 [Compound 46, 2-Oxo-3-[[3-(trifluoromethyl)phenyl]sulfonylamino]-chromen-8-yl 4-aminobenzenesulfonate hydrochloride] | -37% | 98% | – | – |
| O=c1oc2c(OS(=O)(=O)c3ccc(C(F)(F)F)cc3)cccc2cc1NS(=O)(=O)c1ccc(-c2ccccc2)cc1 [Compound 70, 2-Oxo-3-[(4-phenylphenyl)sulfonylamino]chromen-8-yl 4-(trifluoromethyl)benzenesulfonate] | -39% | 103% | – | – |
| N#Cc1ccc(S(=O)(=O)Oc2cccc3cc(NS(=O)(=O)c4ccccc4)c(=O)oc23)cc1 [Compound 20, 3-(Benzenesulfonylamino)-2-oxochromen-8-yl 4-cyanobenzenesulfonate] | -42.1% | 35% | – | – |
| O=c1oc2c(OS(=O)(=O)c3ccccc3[N+](=O)[O-])cccc2cc1NS(=O)(=O)c1ccccc1[N+](=O)[O-] [Compound 18, 3-[(2-Nitrophenyl)sulfonylamino]-2-oxochromen-8-yl 2-nitrobenzenesulfonate] | -23.8% | 81% | – | – |
| O=c1oc2c(OS(=O)(=O)c3cccc(C(F)(F)F)c3)cccc2cc1NS(=O)(=O)c1ccccc1 [Compound 35, 3-(Benzenesulfonamide)-2-oxochromen-8-yl 3-(trifluoromethyl)benzenesulfonate] | – | – | −31.5% | 103% |
| O=c1oc2c(OS(=O)(=O)c3cccc([N+](=O)[O-])c3)cccc2cc1NS(=O)(=O)c1cccc([N+](=O)[O-])c1 [Compound 17, 3-[(3-Nitrophenyl)sulfonylamino]-2-oxochromen-8-yl 3-nitrobenzenesulfonate] | -24.9% | 156% | – | – |
